Laboratory results: PubChem BioAssay (NCI)
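At the GI50, growth is halved. The concentration for full growth arrest is given as TGI.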

Experiments:
Assay in all cases: DTP human tumour cell line panel, 384-well format
786-0 renal = tested on: 786-0 renal
A498 renal = tested on: A498 renal
A549 NSCLC = tested on: A549 NSCLC
ACHN renal = tested on: ACHN renal
BT-549 breast = tested on: BT-549 breast
CAKI-1 renal = tested on: CAKI-1 renal
CCRF-CEM leukemia = tested on: CCRF-CEM leukemia
COLO 205 colon = tested on: COLO 205 colon
DU-145 prostate = tested on: DU-145 prostate
EKVX NSCLC = tested on: EKVX NSCLC
HCC-2998 colon = tested on: HCC-2998 colon
HCT-15 colon = tested on: HCT-15 colon
HL-60(TB) leukemia = tested on: HL-60(TB) leukemia
HOP-62 NSCLC = tested on: HOP-62 NSCLC
HOP-92 NSCLC = tested on: HOP-92 NSCLC
HS 578T breast = tested on: HS 578T breast
HT29 colon = tested on: HT29 colon
IGROV1 ovarian = tested on: IGROV1 ovarian
K-562 leukemia = tested on: K-562 leukemia
KM12 colon = tested on: KM12 colon
LOX IMVI melanoma = tested on: LOX IMVI melanoma
M14 melanoma = tested on: M14 melanoma
MALME-3M melanoma = tested on: MALME-3M melanoma
MCF7 breast = tested on: MCF7 breast
MDA-MB-231 breast = tested on: MDA-MB-231 breast
MDA-MB-435 melanoma = tested on: MDA-MB-435 melanoma
MDA-MB-468 breast = tested on: MDA-MB-468 breast
MOLT-4 leukemia = tested on: MOLT-4 leukemia
NCI-H226 lung = tested on: NCI-H226 lung
NCI-H23 lung = tested on: NCI-H23 lung
NCI-H322M lung = tested on: NCI-H322M lung
NCI-H460 NSCLC = tested on: NCI-H460 NSCLC
NCI-H522 lung = tested on: NCI-H522 lung
NCI/ADR-RES ovarian = tested on: NCI/ADR-RES ovarian
OVCAR-3 ovarian = tested on: OVCAR-3 ovarian
OVCAR-4 ovarian = tested on: OVCAR-4 ovarian
OVCAR-5 ovarian = tested on: OVCAR-5 ovarian
OVCAR-8 ovarian = tested on: OVCAR-8 ovarian
PC-3 prostate = tested on: PC-3 prostate
RPMI-8226 leukemia = tested on: RPMI-8226 leukemia
RXF 393 renal = tested on: RXF 393 renal
SF-268 CNS = tested on: SF-268 CNS
SF-295 CNS = tested on: SF-295 CNS
SF-539 CNS = tested on: SF-539 CNS
SK-MEL-2 melanoma = tested on: SK-MEL-2 melanoma
SK-MEL-28 melanoma = tested on: SK-MEL-28 melanoma
SK-MEL-5 melanoma = tested on: SK-MEL-5 melanoma
SK-OV-3 ovarian = tested on: SK-OV-3 ovarian
SN12C renal = tested on: SN12C renal
SNB-19 CNS = tested on: SNB-19 CNS
SNB-75 CNS = tested on: SNB-75 CNS
SR leukemia = tested on: SR leukemia
SW-620 colon = tested on: SW-620 colon
T-47D breast = tested on: T-47D breast
TK-10 renal = tested on: TK-10 renal
U251 glioblastoma = tested on: U251 glioblastoma
UACC-257 melanoma = tested on: UACC-257 melanoma
UACC-62 melanoma = tested on: UACC-62 melanoma
UO-31 renal = tested on: UO-31 renal

`CC1(C)CC[C@H](Nc2ncc(C(F)(F)F)c(-c3c[nH]c4c(P(C)(C)=O)c(C#N)ccc34)n2)CN1` was tested, and the GI50 ([…]-0 renal) was less than 0.01 µM, the TGI (786-0 renal) was 6.18 µM and the GI50 (A498 renal) was 0.0197 µM. It also gave a TGI (A498 renal) of 6.54 µM, a GI50 (A549 NSCLC) of 0.0663 µM and a TGI (A549 NSCLC) of 12 µM. The GI50 (ACHN renal) was 0.0736 µM, the TGI (ACHN renal) was 8.68 µM and the GI50 (BT-549 breast) was 0.0113 µM. The TGI (BT-549 breast) was 0.205 µM, the GI50 (CAKI-1 renal) was 0.0388 µM and the TGI (CAKI-1 renal) was 12.3 µM. For the same molecule, the GI50 (CCRF-CEM leukemia) was 0.0546 µM, the TGI (CCRF-CEM leukemia) was 1.36 µM and the GI50 (COLO 205 colon) was less than 0.01 µM. It also gave a TGI (COLO 205 colon) of 1.45 µM, a GI50 (DU-145 prostate) of less than 0.01 µM and a TGI (DU-145 prostate) of 3.79 µM. The GI50 (EKVX NSCLC) was 0.361 µM, the TGI (EKVX NSCLC) was 3.64 µM and the GI50 (HCC-2998 colon) was less than 0.01 µM. The TGI (HCC-2998 colon) was 4.21 µM, the GI50 (HCT-15 colon) was 0.0659 µM and the TGI (HCT-15 colon) was 4.37 µM. It also gave a GI50 (HL-60(TB) leukemia) of less than 0.01 µM, a TGI (HL-60(TB) leukemia) of 0.126 µM and a GI50 (HOP-62 NSCLC) of less than 0.01 µM. The TGI (HOP-62 NSCLC) was 0.0182 µM, the GI50 (HOP-92 NSCLC) was 2.31 µM and the TGI (HOP-92 NSCLC) was 11.6 µM. It also gave a GI50 (HS 578T breast) of 0.301 µM, a TGI (HS 578T breast) of 1.62 µM and a GI50 (HT29 colon) of 2.06 µM. It also gave a TGI (HT29 colon) of 28.3 µM, a GI50 (IGROV1 ovarian) of less than 0.01 µM and a TGI (IGROV1 ovarian) of 13.8 µM. For the same molecule, the GI50 (K-562 leukemia) was less than 0.01 µM, the TGI (K-562 leukemia) was 11.2 µM and the GI50 (KM12 colon) was less than 0.01 µM. For the same molecule, the TGI (KM12 colon) was 1.68 µM, the GI50 (LOX IMVI melanoma) was less than 0.01 µM and the TGI (LOX IMVI melanoma) was 0.213 µM. For the same molecule, the GI50 (M14 melanoma) was 0.0168 µM, the TGI (M14 melanoma) was 2.21 µM and the GI50 (MALME-3M melanoma) was 0.0276 µM. It also gave a TGI (MALME-3M melanoma) of 2.42 µM, a GI50 (MCF7 breast) of less than 0.01 µM and a TGI (MCF7 breast) of 1.45 µM. The GI50 (MDA-MB-231 breast) was 1.19 µM, the TGI (MDA-MB-231 breast) was 10.3 µM and the GI50 (MDA-MB-435 melanoma) was 0.114 µM. The TGI (MDA-MB-435 melanoma) was 2.72 µM, the GI50 (MDA-MB-468 breast) was 1.36 µM and the TGI (MDA-MB-468 breast) was 3.01 µM. It also gave a GI50 (MOLT-4 leukemia) of less than 0.01 µM, a TGI (MOLT-4 leukemia) of less than 0.01 µM and a GI50 (NCI-H226 lung) of 0.577 µM. For the same molecule, the TGI (NCI-H226 lung) was 12.6 µM, the GI50 (NCI-H23 lung) was less than 0.01 µM and the TGI (NCI-H23 lung) was 1.47 µM. The GI50 (NCI-H322M lung) was 0.644 µM, the TGI (NCI-H322M lung) was 3.14 µM and the GI50 (NCI-H460 NSCLC) was less than 0.01 µM. The TGI (NCI-H460 NSCLC) was less than 0.01 µM, the GI50 (NCI-H522 lung) was less than 0.01 µM and the TGI (NCI-H522 lung) was 2.42 µM. The GI50 (NCI/ADR-RES ovarian) was 2.5 µM, the TGI (NCI/ADR-RES ovarian) was 12.6 µM and the GI50 (OVCAR-3 ovarian) was less than 0.01 µM. For the same molecule, the TGI (OVCAR-3 ovarian) was less than 0.01 µM, the GI50 (OVCAR-4 ovarian) was 0.0213 µM and the TGI (OVCAR-4 ovarian) was 1.42 µM. For the same molecule, the GI50 (OVCAR-5 ovarian) was 0.182 µM, the TGI (OVCAR-5 ovarian) was 9.82 µM and the GI50 (OVCAR-8 ovarian) was 0.0743 µM. For the same molecule, the TGI (OVCAR-8 ovarian) was 6.28 µM, the GI50 (PC-3 prostate) was less than 0.01 µM and the TGI (PC-3 prostate) was 10.8 µM. For the same molecule, the GI50 (RPMI-8226 leukemia) was less than 0.01 µM, the TGI (RPMI-8226 leukemia) was less than 0.01 µM and the GI50 (RXF 393 renal) was 1.51 µM. For the same molecule, the TGI (RXF 393 renal) was 2.99 µM, the GI50 (SF-268 CNS) was 0.132 µM and the TGI (SF-268 CNS) was 1.99 µM. The GI50 (SF-295 CNS) was 0.0675 µM, the TGI (SF-295 CNS) was 4.57 µM and the GI50 (SF-539 CNS) was less than 0.01 µM. The TGI (SF-539 CNS) was 1.3 µM, the GI50 (SK-MEL-2 melanoma) was 1.22 µM and the TGI (SK-MEL-2 melanoma) was 3.17 µM. The GI50 (SK-MEL-28 melanoma) was less than 0.01 µM, the TGI (SK-MEL-28 melanoma) was 1.52 µM and the GI50 (SK-MEL-5 melanoma) was 0.0438 µM. The TGI (SK-MEL-5 melanoma) was 1.42 µM, the GI50 (SK-OV-3 ovarian) was 1.13 µM and the TGI (SK-OV-3 ovarian) was 6.25 µM. The GI50 (SN12C renal) was less than 0.01 µM, the TGI (SN12C renal) was 2.87 µM and the GI50 (SNB-19 CNS) was 1 µM. The TGI (SNB-19 CNS) was 12.8 µM, the GI50 (SNB-75 CNS) was 1.57 µM and the TGI (SNB-75 CNS) was 3.2 µM. It also gave a GI50 (SR leukemia) of less than 0.01 µM, a TGI (SR leukemia) of less than 0.01 µM and a GI50 (SW-620 colon) of less than 0.01 µM. The TGI (SW-620 colon) was 10.2 µM, the GI50 (T-47D breast) was 0.994 µM and the TGI (T-47D breast) was 10.2 µM. For the same molecule, the GI50 (TK-10 renal) was 0.887 µM, the TGI (TK-10 renal) was 10.4 µM and the GI50 (U251 glioblastoma) was 0.0133 µM. For the same molecule, the TGI (U251 glioblastoma) was 10.4 µM, the GI50 (UACC-257 melanoma) was 1.02 µM and the TGI (UACC-257 melanoma) was 3.45 µM. For the same molecule, the GI50 (UACC-62 melanoma) was less than 0.01 µM, the TGI (UACC-62 melanoma) was 0.0309 µM and the GI50 (UO-31 renal) was 0.335 µM. It also gave a TGI (UO-31 renal) of 8.12 µM.
